The target of this assay is T1, human EP4 receptors (Homo sapiens, UniProt P35408).
T1 construct: expressed in transfected cells
T1 sequence (P35408 whole entry): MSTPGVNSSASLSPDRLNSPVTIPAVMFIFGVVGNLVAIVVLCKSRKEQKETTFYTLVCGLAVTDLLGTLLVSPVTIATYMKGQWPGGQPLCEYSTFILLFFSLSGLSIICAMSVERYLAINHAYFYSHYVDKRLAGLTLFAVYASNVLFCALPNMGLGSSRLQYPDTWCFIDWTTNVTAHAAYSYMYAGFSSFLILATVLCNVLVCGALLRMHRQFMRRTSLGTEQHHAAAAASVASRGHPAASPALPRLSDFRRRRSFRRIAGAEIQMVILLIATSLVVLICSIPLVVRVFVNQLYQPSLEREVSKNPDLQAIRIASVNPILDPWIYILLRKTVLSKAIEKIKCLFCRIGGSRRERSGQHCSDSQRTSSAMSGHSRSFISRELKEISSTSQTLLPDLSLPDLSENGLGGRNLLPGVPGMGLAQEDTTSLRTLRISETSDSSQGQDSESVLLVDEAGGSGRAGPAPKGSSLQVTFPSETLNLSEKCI
Put plainly: cAMP assay in human EP4 transfectant. Format: cell-based. Particulars: HEK293 cells expressing human EP4 receptors; 1 nM PGE2, 0.2 mM IBMX, 37° C. for 10 min. As to the method: cAMP Assay in Human EP4 Transfectant HEK293 cells expressing human EP4 receptors (hEP4 cells) are maintained in DMEM containing 10% FBS and 500 μg/ml geneticin. For harvesting hEP4 cells, culture medium is aspirated and cells in 75 cm^2 flask are washed with 10 ml of phosphate buffered saline (PBS). Another 10 ml of PBS is added to the cells and incubated for 20 min at room temperature. Human EP4 cells are harvested by pipetting and centrifuged at 300×g for 4 min. Cells are resuspended in DMEM without neutral red at a density of 7×10^5 cells/ml containing 0.2 mM IBMX (PDE inhibitor), 1 nM PGE2 and test compounds in PCR-tubes, and incubated at 37° C. for 10 min. The reaction is stopped by heating at 100° C. for 10 min with thermal cycler. Concentration of cAMP in reaction mixtures is determined with SPA cAMP Kit (Amersham) or cAMP Screen™ (Applied Biosystems) according to the manufacture's instruction. Reference: Eur. J. Pharmacol. 340 (1997) 227-241 cAMP assay in human EP4 transfectant were conducted using the method described above. IC50: the concentration of the individual compound required to reduce the amount of ligand by 50%.
A general note: Cyclic AMP is a second messenger, typically raised through Gs and lowered through Gi signalling.
On to `O=C(O)c1ccc(CNC(=O)c2cc(Cl)ccc2OCCc2ccccc2Cl)cc1` [EXAMPLE 2, 4-[({5-CHLORO-2-[2-(2-CHLOROPHENYL)ETHOXY]BENZOYL}AMINO)METHYL]BENZOIC ACID], for which the 50% inhibitory concentration (IC50) was found to be 0.108 µM.

In turn, `C[C@H](NC(=O)c1cc(Cl)ccc1O[C@H]1CC[C@H](C)CC1)c1ccc(C(=O)O)cc1` [EXAMPLE 18, 4-[(1S)-1-({5-CHLORO-2-[(TRANS-4-METHYLCYCLOHEXYL)OXY]BENZOYL}AMINO)ETHYL]BENZOIC ACID] registered an IC50 of 0.26 µM.

Molecule `CC(C)OCCOc1ccc(Cl)cc1C(=O)N[C@@H](C)c1ccc(C(=O)O)cc1` [EXAMPLE 21, 4-((1S)-1-{[5-CHLORO-2-(2-ISOPROPOXYETHOXY)BENZOYL]AMINO}ETHYL)BENZOIC ACID] came in with an IC50 of 0.2 µM.

With `C[C@H](NC(=O)c1cc(Cl)ccc1OCc1ccccc1Cl)c1ccc(C(=O)O)cc1` [EXAMPLE 22, 4-[(1S)-1-({5-CHLORO-2-[(2-CHLOROBENZYL)OXY]BENZOYL}AMINO)ETHYL]BENZOIC ACID], the IC50 turned out to be 0.013 µM.

`CC(C)CCOc1ccc(Cl)cc1C(=O)N[C@@H](C)c1ccc(C(=O)O)cc1` [EXAMPLE 14, 4-((1S)-1-{[5-CHLORO-2-(3-METHYLBUTOXY)BENZOYL]AMINO}ETHYL)BENZOIC ACID] registered an IC50 of 0.041 µM.

As for `Cc1ccccc1CCOc1ccc(Cl)cc1C(=O)N[C@@H](C)c1ccc(C(=O)O)cc1` [EXAMPLE 11, 4-[(1S)-1-({5-CHLORO-2-[2-(2-METHYLPHENYL)ETHOXY]BENZOYL}AMINO)ETHYL]BENZOIC ACID], inhibition was half-maximal at 0.02 µM (IC50).

The molecule `C[C@H](NC(=O)c1cc(Cl)cnc1N(C)Cc1cccc(Cl)c1)c1ccc(C(=O)O)cc1` [EXAMPLE 52, 4-{(1S)-1-[({5-CHLORO-2-[(3-CHLOROBENZYL)(METHYL)AMINO]PYRIDIN-3-YL}CARBONYL)AMINO]ETHYL}BENZOIC ACID] came in with an IC50 of 0.065 µM.

`C[C@H](NC(=O)c1cc(Cl)ccc1OCc1cccc(Cl)c1)c1ccc(C(=O)O)cc1` [EXAMPLE 23, 4-[(1S)-1-({5-CHLORO-2-[(3-CHLOROBENZYL)OXY]BENZOYL}AMINO)ETHYL]BENZOIC ACID]: inhibition was half-maximal at 0.022 µM (IC50).

Take `C[C@H](NC(=O)c1cc(Cl)ccc1OCc1ccc(F)cc1F)c1ccc(C(=O)O)cc1` [EXAMPLE 35, 4-[(1S)-1-({5-CHLORO-2-[(2,4-DIFLUOROBENZYL)OXY]BENZOYL}AMINO)ETHYL]BENZOIC ACID]: the IC50 worked out at 0.11 µM.

With `C[C@H](NC(=O)c1cc(Cl)cnc1N(C)CCc1ccccc1)c1ccc(C(=O)O)cc1` [EXAMPLE 16, 4-{(1S)-1-[({5-CHLORO-2-[METHYL(2-PHENYLETHYL)AMINO]PYRIDIN-3-YL}CARBONYL)AMINO]ETHYL}BENZOIC ACID], the IC50 is 0.35 µM.

`C[C@H](NC(=O)c1cc(Cl)ccc1OCc1ccc(F)c(F)c1)c1ccc(C(=O)O)cc1` [EXAMPLE 33, 4-[(1S)-1-({5-CHLORO-2-[(3,4-DIFLUOROBENZYL)OXY]BENZOYL}AMINO)ETHYL]BENZOIC ACID] displayed an IC50 of 0.063 µM.

`Cc1ccccc1CCOc1ccc(Cl)cc1C(=O)NCc1ccc(C(=O)O)cc1` [EXAMPLE 7, 4-[({5-CHLORO-2-[2-(2-METHYLPHENYL)ETHOXY]BENZOYL}AMINO)METHYL]BENZOIC ACID]: the half-inhibitory concentration (IC50) was 0.062 µM.

For `Cc1ccc(CCOc2ccc(Cl)cc2C(=O)N[C@@H](C)c2ccc(C(=O)O)cc2)cc1` [EXAMPLE 12, 4-[(1S)-1-({5-CHLORO-2-[2-(4-METHYLPHENYL)ETHOXY]BENZOYL}AMINO)ETHYL]BENZOIC ACID], the IC50 stood at 0.021 µM.

In the case of `O=C(O)c1ccc(CNC(=O)c2cc(Cl)ccc2OCc2ccc(Cl)cc2)cc1` [EXAMPLE 6, 4-[({5-CHLORO-2-[(4-CHLOROBENZYL)OXY]BENZOYL)AMINO)METHYL]BENZOIC ACID], the midpoint of inhibition, the IC50, lay at 0.441 µM.

Consider `C[C@H](NC(=O)c1cc(Cl)ccc1OCc1cc(F)ccc1F)c1ccc(C(=O)O)cc1` [EXAMPLE 32, 4-[(1S)-1-({5-CHLORO-2-[(2,5-DIFLUOROBENZYL)OXY]BENZOYL}AMINO)ETHYL]BENZOIC ACID], for which the half-maximal inhibitory concentration (IC50) worked out at 0.05 µM.

Take `C[C@H](NC(=O)c1cc(Cl)ccc1OCC1CCCO1)c1ccc(C(=O)O)cc1` (stereo partly drawn) [EXAMPLE 49, 4-((1S)-1-{[5-CHLORO-2-(TETRAHYDROFURAN-2-YLMETHOXY)BENZOYL]AMINO}ETHYL)BENZOIC ACID]: the IC50 was 0.36 µM.

As for `C[C@H](NC(=O)c1cc(Cl)cnc1OCCc1ccc(F)cc1)c1ccc(C(=O)O)cc1` [EXAMPLE 9, 4-{(1S)-1-[({5-CHLORO-2-[2-(4-FLUOROPHENYL)ETHOXY]PYRIDIN-3-YL}CARBONYL)AMINO]ETHYL}BENZOIC ACID], the IC50 was 0.24 µM.

Take `COC(COc1ccc(Cl)cc1C(=O)N[C@@H](C)c1ccc(C(=O)O)cc1)c1ccccc1` (stereo partly drawn) [EXAMPLE 27, 4-((1S)-1-{[5-CHLORO-2-(2-METHOXY-2-PHENYLETHOXY)BENZOYL]AMINO}ETHYL)BENZOIC ACID]: 0.14 µM corresponded to half-maximal inhibition (IC50).

In the case of `C[C@H](NC(=O)c1cc(Cl)cnc1N(C)Cc1ccc(Cl)cc1)c1ccc(C(=O)O)cc1` [EXAMPLE 51, 4-{(1S)-1-[({5-CHLORO-2-[(4-CHLOROBENZYL)(METHYL)AMINO]PYRIDIN-3-YL}CARBONYL)AMINO]ETHYL}BENZOIC ACID], the IC50 amounted to 0.025 µM.

Molecule `C[C@H](NC(=O)c1cc(Cl)ccc1OCc1cccc(F)c1)c1ccc(C(=O)O)cc1` [EXAMPLE 43, 4-[(1S)-1-({5-CHLORO-2-[(3-FLUOROBENZYL)OXY]BENZOYL}AMINO)ETHYL]BENZOIC ACID] displayed an IC50 of 0.14 µM.

With `CC(C)CCOc1ncc(Cl)cc1C(=O)N[C@@H](C)c1ccc(C(=O)O)cc1` [EXAMPLE 31, 4-[(1S)-1-({[5-CHLORO-2-(3-METHYLBUTOXY)PYRIDIN-3-YL]CARBONYL}AMINO)ETHYL]BENZOIC ACID], it took 0.14 µM to reach half-maximal inhibition (IC50).

With `C[C@H](NC(=O)c1cc(Cl)cnc1OCCc1ccc(Cl)cc1)c1ccc(C(=O)O)cc1` [EXAMPLE 15, 4-{(1S)-1-[({5-CHLORO-2-[2-(4-CHLOROPHENYL)ETHOXY]PYRIDIN-3-YL}CARBONYL)AMINO]ETHYL}BENZOIC ACID], 0.078 µM corresponded to half-maximal inhibition (IC50).

Consider `C[C@H](NC(=O)c1cc(Cl)cnc1OCc1ccccc1Cl)c1ccc(C(=O)O)cc1` [EXAMPLE 39, 4-{(1S)-1-[({5-CHLORO-2-[(2-CHLOROBENZYL)OXY]PYRIDIN-3-YL}CARBONYL)AMINO]ETHYL}BENZOIC ACID], for which the IC50 was 0.076 µM.

The molecule `C[C@H](NC(=O)c1cc(Cl)cnc1N(C)Cc1ccc(F)cc1)c1ccc(C(=O)O)cc1` [EXAMPLE 54, 4-{(1S)-1-[({5-CHLORO-2-[(4-FLUOROBENZYL)(METHYL)AMINO]PYRIDIN-3-YL}CARBONYL)AMINO]ETHYL}BENZOIC ACID] showed an IC50 of 0.11 µM.

In the case of `C[C@H](NC(=O)c1cc(Cl)cnc1N(C)Cc1ccccc1Cl)c1ccc(C(=O)O)cc1` [EXAMPLE 48, 4-{(1S)-1-[({5-CHLORO-2-[(2-CHLOROBENZYL)(METHYL)AMINO]PYRIDIN-3-YL}CARBONYL)AMINO]ETHYL}BENZOIC ACID], it took 0.1 µM to reach half-maximal inhibition (IC50).

In turn, `Cc1ccccc1CCOc1ncc(Cl)cc1C(=O)N[C@@H](C)c1ccc(C(=O)O)cc1` [EXAMPLE 19, 4-{(1S)-1-[({5-CHLORO-2-[2-(2-METHYLPHENYL)ETHOXY]PYRIDIN-3-YL}CARBONYL)AMINO]ETHYL}BENZOIC ACID] returned a 50% inhibitory concentration (IC50) of 0.13 µM.

`CC(C)COc1ccc(Cl)cc1C(=O)N[C@@H](C)c1ccc(C(=O)O)cc1` [EXAMPLE 30, 4-{(1S)-1-[(5-CHLORO-2-ISOBUTOXYBENZOYL)AMINO}ETHYL]BENZOIC ACID] displayed an IC50 of 0.14 µM.

Take `Cc1cc(COc2ccc(Cl)cc2C(=O)N[C@@H](C)c2ccc(C(=O)O)cc2)no1` [EXAMPLE 44, 4-[(1S)-1-({5-CHLORO-2-[(5-METHYLISOXAZOL-3-YL)METHOXY]BENZOYL}AMINO)ETHYL]BENZOIC ACID]: the IC50 worked out at 0.13 µM.

Turning to `C[C@H](NC(=O)c1cc(Cl)ccc1OCCOc1ccccc1)c1ccc(C(=O)O)cc1` [EXAMPLE 26, 4-((1S)-1-{[5-CHLORO-2-(2-PHENOXYETHOXY)BENZOYL]AMINO}ETHYL)BENZOIC ACID], the 50% inhibitory concentration (IC50) is 0.062 µM.

In turn, `C[C@H](NC(=O)c1cc(Cl)ccc1OCc1ccccc1F)c1ccc(C(=O)O)cc1` [EXAMPLE 36, 4-[(1S)-1-({5-CHLORO-2-[(2-FLUOROBENZYL)OXY]BENZOYL}AMINO)ETHYL]BENZOIC ACID] registered an IC50 of 0.17 µM.

As to `C[C@H](NC(=O)c1cc(Cl)ccc1OCCc1ccccc1F)c1ccc(C(=O)O)cc1` [EXAMPLE 10, 4-[(1S)-1-({5-CHLORO-2-[2-(2-FLUOROPHENYL)ETHOXY]BENZOYL}AMINO)ETHYL]BENZOIC ACID], inhibition was half-maximal at 0.048 µM (IC50).

Consider `O=C(O)c1ccc(CNC(=O)c2cc(Cl)ccc2OCCc2ccccc2)cc1` [EXAMPLE 1, 4-({[5-CHLORO-2-(2-PHENYLETHOXY-)BENZOYL]AMINO}METHYL)BENZOIC ACID], for which the IC50 turned out to be 0.149 µM.

`C[C@H](NC(=O)c1cc(Cl)ccc1OCc1ccccc1)c1ccc(C(=O)O)cc1` [EXAMPLE 38, 4-((1S)-1-{[2-(BENZYLOXY)-5-CHLOROBENZOYL]AMINO}ETHYL)BENZOIC ACID] showed a 50% inhibitory concentration (IC50) of 0.075 µM.

The molecule `C[C@H](NC(=O)c1cc(Cl)ccc1OC1CCCCC1)c1ccc(C(=O)O)cc1` [EXAMPLE 13, 4-((1S)-1-{[5-CHLORO-2-(CYCLOHEXYLOXY)BENZOYL]AMINO}ETHYL)BENZOIC ACID] returned an IC50 of 0.035 µM.

For the molecule `C[C@H](NC(=O)c1cc(Cl)ccc1OCCOc1ccc(F)cc1)c1ccc(C(=O)O)cc1` [EXAMPLE 28, 4-[(1S)-1-({5-CHLORO-2-[2-(4-FLUOROPHENOXY)ETHOXY]BENZOYL}AMINO)ETHYL]BENZOIC ACID], 0.21 µM corresponded to half-maximal inhibition (IC50).

The IC50 is the point on the concentration scale where inhibition reaches its midpoint. A high value points to weaker potency in that assay.

For the origin of these results see patent US20050250818A1, “Ortho substituted aryl or heteroaryl amide compounds” (Pfizer Inc, priority 2004, published 2005).
